Earlier results in patent publication US20030105165A1, “Gap junctions and EDHF” (priority 2001, published 2003).

Test system: rabbit arteries
Conditions: endothelium-, gap junction- and cAMP-dependent; cited from earlier work

CCCCC/C=C\C/C=C\C/C=C\CC1OC1CCCC(=O)O (stereo not shown) [5,6-EET]
Relaxation of rabbit arteries by EET regioisomers: evokes relaxations
